The conditions of data set [1]: cited from earlier work.
The target of data set [2] is T1, RyR2 (Mus musculus, UniProt E9Q401).
T1 construct: spontaneous openings of intracellular RyR2 Ca^2+ release channels; endogenous in cells; host or cells: ventricular cardiomyocytes isolated from Casq2-/- mice (saponin-permeabilized in A1, intact in A7)
The conditions noted are these: read-out: IC50, intact cardiomyocyte assay (ent-1 comparison); cited from earlier work.

For data set [3], the system named is Casq2-/- mice. The conditions noted are these: cited from earlier work.
Data set [4] addresses T2, RyR2 (Sus scrofa, UniProt A0A5G2R1W3).
T2 construct: isolated SR vesicles derived from porcine cardiac muscle; from tissue; host or cells: porcine heart (cardiac sarcoplasmic reticulum vesicles)
The conditions noted are these: read-out: IC50, ryanodine binding assay (ent-1 comparison); cited from earlier work.

In data set [5] the target is T1, RyR2. Briefly: Calcium spark frequency in permeabilized Casq2 knockout cardiomyocytes (screen for RyR2 activity). It is filed as cell-based. On the procedure:
FIGS. 3(A)-3(E) show a biological screen for cardiac ryanodine receptor (RyR2) activity. Note that ‘ent-24’=9, and ‘ent-18’ refers to structure 8 in FIG. 1, which is also the enantiomer of a natural product. (3A) Calcium spark frequency in permeabilized murine cardiomyocytes was recorded as an index of RyR2 activity. Compounds were screened at 25 uM concentration after 10-minute incubation. *=p<0.001 by one-way ANOVA with Tukey's post-hoc test. (3B) Incubation time was extended to 60 minutes for the 12- and 30-membered rings. (3C) The seco-acid precursors to 12- and 18-membered rings were tested at 25 uM. (3D) Concentration response curve for the 18-membered ring and (3E) 24-membered ring. Cells were incubated for 30 minutes
Activity of Ring-Size Analogues. […] Ventricular cardiomyocytes were isolated, permeabilized with saponin, and incubated with vehicle (DMSO) or 25 μM of selected compound. RyR2 activity was measured in the form of calcium sparks, which are elementary Ca^2+ release events generated by spontaneous openings of intracellular RyR2 Ca^2+ release channels. Importantly, saponin selectively permeabilizes the sarcolemmal membrane, leaving the SR membrane intact and ensuring equivalent access of the compounds to the SR membrane where RyR2 resides.
The compounds were first screened by incubating cardiomyocytes for 10 minutes at 25 μM concentration and compared to vehicle (DMSO) conditions.

Data set [6] deals with mammalian cardiac ryanodine receptor (RyR2). The conditions noted are these: cited from earlier work.

Read-outs that look alike come from different tables or passages of the source.

Consider two substances from patent US20240174718A1, “RYANODINE RECEPTOR INHIBITOR COMPOUNDS AND METHODS RELATING THERETO” (Vanderbilt University, priority 2022, published 2024).

T1 sequence (E9Q401 whole entry): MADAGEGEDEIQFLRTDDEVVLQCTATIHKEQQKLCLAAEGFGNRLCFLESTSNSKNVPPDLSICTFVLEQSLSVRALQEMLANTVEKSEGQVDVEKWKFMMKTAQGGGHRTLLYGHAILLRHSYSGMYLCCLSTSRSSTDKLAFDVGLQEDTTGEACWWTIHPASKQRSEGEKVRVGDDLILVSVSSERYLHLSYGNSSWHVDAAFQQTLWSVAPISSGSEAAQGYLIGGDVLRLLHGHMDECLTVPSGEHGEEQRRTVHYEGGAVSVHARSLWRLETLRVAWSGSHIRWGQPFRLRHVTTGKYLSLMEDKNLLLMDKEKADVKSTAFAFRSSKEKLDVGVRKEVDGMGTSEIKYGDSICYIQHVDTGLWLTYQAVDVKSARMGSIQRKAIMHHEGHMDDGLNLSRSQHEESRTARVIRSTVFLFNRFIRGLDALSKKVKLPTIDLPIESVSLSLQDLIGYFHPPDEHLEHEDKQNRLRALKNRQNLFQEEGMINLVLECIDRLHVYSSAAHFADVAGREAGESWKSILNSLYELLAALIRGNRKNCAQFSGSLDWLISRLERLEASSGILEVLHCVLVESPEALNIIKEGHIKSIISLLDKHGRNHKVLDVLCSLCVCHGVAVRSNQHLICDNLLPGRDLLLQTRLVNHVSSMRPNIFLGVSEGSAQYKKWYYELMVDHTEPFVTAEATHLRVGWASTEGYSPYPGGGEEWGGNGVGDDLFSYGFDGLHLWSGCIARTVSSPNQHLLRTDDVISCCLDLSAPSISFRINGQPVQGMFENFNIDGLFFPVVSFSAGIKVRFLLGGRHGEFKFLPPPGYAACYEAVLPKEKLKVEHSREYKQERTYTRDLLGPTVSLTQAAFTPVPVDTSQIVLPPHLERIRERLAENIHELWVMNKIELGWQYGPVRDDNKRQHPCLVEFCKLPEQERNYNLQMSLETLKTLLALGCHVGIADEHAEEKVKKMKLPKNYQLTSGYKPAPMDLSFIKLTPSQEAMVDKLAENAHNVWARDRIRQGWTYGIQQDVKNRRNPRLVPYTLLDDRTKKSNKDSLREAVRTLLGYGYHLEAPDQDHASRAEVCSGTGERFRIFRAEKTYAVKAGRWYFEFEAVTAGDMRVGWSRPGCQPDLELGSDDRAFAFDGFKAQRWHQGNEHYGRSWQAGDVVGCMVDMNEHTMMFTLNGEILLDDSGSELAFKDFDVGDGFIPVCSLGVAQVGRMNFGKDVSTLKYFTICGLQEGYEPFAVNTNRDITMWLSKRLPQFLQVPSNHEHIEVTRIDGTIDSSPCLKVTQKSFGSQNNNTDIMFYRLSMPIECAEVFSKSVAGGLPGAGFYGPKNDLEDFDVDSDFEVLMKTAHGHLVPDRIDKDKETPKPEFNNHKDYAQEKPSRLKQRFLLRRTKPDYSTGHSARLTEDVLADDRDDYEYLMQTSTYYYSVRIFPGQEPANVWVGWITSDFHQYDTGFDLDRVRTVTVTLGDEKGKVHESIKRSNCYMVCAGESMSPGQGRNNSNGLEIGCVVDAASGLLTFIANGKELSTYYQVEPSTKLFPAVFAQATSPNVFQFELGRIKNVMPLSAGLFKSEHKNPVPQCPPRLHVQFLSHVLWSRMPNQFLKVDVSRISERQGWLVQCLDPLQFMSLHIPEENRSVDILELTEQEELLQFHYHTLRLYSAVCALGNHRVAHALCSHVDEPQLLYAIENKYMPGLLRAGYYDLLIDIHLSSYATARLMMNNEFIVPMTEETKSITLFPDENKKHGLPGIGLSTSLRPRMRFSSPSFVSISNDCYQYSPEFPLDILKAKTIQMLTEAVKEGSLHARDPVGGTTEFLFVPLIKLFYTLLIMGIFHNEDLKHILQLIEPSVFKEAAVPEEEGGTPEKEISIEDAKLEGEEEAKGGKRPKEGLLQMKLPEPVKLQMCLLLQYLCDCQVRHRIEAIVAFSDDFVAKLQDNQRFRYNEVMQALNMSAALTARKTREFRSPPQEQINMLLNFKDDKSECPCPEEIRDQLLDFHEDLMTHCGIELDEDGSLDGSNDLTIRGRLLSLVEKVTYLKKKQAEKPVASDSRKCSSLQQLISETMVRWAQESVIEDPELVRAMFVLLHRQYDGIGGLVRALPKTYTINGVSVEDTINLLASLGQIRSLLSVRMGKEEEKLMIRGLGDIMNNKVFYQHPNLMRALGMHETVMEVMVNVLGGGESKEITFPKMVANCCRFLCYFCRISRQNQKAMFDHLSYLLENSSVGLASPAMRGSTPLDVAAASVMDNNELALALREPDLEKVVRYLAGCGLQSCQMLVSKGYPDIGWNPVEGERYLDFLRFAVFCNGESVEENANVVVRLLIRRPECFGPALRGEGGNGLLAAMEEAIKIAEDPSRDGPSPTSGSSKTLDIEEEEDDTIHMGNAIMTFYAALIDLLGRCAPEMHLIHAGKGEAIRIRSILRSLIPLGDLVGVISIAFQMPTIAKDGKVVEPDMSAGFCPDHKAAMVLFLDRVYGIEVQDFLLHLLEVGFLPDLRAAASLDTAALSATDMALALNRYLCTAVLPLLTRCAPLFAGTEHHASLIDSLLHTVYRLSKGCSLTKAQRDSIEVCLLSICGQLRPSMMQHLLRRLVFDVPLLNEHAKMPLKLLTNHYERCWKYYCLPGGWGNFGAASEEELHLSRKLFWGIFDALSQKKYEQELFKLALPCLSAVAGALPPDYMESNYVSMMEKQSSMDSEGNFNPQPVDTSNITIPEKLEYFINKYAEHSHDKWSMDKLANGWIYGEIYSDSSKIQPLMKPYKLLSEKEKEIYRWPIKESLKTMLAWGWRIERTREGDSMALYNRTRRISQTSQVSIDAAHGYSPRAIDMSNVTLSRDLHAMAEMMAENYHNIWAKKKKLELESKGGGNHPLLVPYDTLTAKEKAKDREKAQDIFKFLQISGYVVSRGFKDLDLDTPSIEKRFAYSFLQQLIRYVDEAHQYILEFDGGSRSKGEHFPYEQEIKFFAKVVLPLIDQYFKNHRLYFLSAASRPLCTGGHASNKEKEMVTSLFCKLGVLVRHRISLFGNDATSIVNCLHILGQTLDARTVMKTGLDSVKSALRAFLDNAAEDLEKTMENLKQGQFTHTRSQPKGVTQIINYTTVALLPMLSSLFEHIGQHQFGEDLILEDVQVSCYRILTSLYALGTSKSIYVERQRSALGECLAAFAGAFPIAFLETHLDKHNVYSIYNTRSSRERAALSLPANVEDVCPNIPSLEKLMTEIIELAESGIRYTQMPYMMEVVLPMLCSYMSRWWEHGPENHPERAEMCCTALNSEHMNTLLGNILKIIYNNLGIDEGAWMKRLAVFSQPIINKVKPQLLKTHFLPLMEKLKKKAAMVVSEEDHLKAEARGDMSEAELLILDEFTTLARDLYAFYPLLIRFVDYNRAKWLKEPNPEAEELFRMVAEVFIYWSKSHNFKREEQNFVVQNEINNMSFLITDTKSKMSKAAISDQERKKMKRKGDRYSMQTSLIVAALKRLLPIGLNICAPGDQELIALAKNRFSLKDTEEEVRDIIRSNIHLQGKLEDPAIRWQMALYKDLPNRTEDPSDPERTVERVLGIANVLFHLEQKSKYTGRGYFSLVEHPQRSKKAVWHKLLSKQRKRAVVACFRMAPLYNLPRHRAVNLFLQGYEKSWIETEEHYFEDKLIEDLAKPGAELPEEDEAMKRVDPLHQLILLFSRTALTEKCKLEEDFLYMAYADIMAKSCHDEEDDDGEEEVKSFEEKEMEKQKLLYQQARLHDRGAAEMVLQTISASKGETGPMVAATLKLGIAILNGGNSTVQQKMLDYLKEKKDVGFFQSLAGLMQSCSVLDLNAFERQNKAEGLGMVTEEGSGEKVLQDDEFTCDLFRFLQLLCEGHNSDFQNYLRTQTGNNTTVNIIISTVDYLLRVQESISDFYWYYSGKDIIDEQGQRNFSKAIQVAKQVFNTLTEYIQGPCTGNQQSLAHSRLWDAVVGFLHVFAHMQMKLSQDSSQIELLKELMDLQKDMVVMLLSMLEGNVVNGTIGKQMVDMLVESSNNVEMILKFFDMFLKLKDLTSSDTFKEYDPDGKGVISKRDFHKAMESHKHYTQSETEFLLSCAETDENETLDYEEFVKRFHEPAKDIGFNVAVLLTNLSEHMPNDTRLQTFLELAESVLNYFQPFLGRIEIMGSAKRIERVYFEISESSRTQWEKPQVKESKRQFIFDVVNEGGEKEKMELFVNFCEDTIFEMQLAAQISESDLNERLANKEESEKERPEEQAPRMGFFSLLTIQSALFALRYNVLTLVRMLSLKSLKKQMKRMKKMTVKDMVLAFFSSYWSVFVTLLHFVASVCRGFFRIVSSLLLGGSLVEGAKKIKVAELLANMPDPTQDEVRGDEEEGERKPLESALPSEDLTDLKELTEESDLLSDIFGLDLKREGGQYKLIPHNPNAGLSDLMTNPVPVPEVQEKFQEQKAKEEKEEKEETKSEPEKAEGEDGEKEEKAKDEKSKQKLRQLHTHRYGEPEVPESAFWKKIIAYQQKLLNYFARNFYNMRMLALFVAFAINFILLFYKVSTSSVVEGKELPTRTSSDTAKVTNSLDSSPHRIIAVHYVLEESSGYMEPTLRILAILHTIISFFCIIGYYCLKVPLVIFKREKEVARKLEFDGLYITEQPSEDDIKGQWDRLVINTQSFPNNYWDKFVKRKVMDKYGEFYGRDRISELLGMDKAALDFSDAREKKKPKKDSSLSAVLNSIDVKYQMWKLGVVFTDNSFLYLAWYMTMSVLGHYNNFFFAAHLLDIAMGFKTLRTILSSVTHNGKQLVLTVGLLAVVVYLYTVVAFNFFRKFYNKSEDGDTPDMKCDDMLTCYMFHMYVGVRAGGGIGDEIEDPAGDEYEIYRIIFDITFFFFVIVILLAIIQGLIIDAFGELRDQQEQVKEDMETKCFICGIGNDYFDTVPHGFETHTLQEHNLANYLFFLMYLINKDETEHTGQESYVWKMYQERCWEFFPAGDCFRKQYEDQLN

With (+)-ent-verticilide [ent-1], the figures for the “half-life of ent-1” value in data set [1] (3 mg/kg dose) and in data set [1] (30 mg/kg dose) were 6.9 h and 6.4 h, respectively. Further, in data set [1] (mice), the “t1/2 of ent-1” value was 6.92 h. Moreover, the results for the 50% inhibitory concentration (IC50) in data set [2] and in data set [4] were 90 nM and 100 nM, respectively. In addition, the “reduction in ventricular ectopy burden (ent-1)” value in data set [3] (30 mg/kg, same arrhythmia induction protocol) is reported as 70%. In data set [3] (single dose study, 3 and 30 mg/kg i.p., Casq2-/- mice), the “antiarrhythmic efficacy in vivo (ent-1)” value is on record as “antiarrhythmic efficacy”. Besides, in data set [5] (25 μM, 10 minutes incubation, vs vehicle (DMSO)), the “RyR2-mediated Ca2+ spark frequency” value was “significantly inhibited”. The “RyR2-mediated spontaneous calcium release” value in data set [6] is on record as “significantly reduced”. In data set [6], the “potency of inhibition of mammalian cardiac ryanodine receptor calcium release channels” value was “sub-micromolar potency”.

In the case of “(−)-nat-verticilide [reference compound]”, in data set [5], the “activity in the calcium spark assay (summary statement)” value is given as “none of these were active”. For the same substance, the “RyR2-mediated spontaneous calcium release” value in data set [6] was “no effect”.

In general, IC50 refers to the concentration that gives 50% inhibition.
